Active and inactive are the calls of the source. The rule behind the calls is not given here.

One experiment deals with THP-1. The experiment is described as follows: Compound was tested for its ability to inhibit TNF-alpha in a cellular assay using THP-1 cells at 3 uM. It is filed as functional. Conditions: Homo sapiens.
In a further experiment the target is Collagenase 3 (Homo sapiens, UniProt P45452). As to the kind of experiment: Concentration required in vitro to inhibit Matrix metalloprotease-13.
The target in experiment [1] is Matrix metalloproteinase-9 (Homo sapiens, UniProt P14780). The experiment is described as follows: Concentration required in vitro to inhibit Matrix metalloprotease-9.
Experiment [2] deals with Rattus norvegicus. The experiment is described as follows: Dialysis activity is detected at a dose of 50 mpk after 1 hr of po administration. More on the design: unit not given here. It is filed as functional.
Experiment [3] is filed under the species Rattus norvegicus. As to the kind of experiment: Dialysis activity is detected at a dose of 50 mpk; IA denotes inactive. The format is functional, organism-based.
The target of experiment [4] is Disintegrin and metalloproteinase domain-containing protein 17 (Homo sapiens, UniProt P78536). The experiment is described as follows: Concentration required in vitro to inhibit TNF-alpha converting enzyme (TACE).
The next experiment addresses T1, Interstitial collagenase (Homo sapiens, UniProt P03956).
T1 sequence (P03956 whole entry): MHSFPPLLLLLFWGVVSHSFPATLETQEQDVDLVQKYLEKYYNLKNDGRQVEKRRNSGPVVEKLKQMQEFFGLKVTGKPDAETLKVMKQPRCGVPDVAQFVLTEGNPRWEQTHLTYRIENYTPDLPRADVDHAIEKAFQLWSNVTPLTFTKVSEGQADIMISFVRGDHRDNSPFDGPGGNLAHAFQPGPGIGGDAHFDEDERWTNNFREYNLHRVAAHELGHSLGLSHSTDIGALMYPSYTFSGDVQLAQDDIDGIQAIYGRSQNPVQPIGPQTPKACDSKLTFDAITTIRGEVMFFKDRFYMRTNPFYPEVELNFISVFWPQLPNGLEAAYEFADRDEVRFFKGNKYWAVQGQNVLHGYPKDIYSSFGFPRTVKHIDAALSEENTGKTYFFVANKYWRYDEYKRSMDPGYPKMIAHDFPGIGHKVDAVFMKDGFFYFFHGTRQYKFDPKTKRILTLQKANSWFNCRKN
As to the kind of experiment: Concentration required in vitro to inhibit Matrix metalloprotease-1.

Experiment [5] concerns Rattus norvegicus. As to the kind of experiment: Dialysis activity is detected at a dose of 50 mpk after 2 hr of ip administration. More on the design: unit not given here. The format is functional.
The species entered for experiment [6] is Bos taurus. The experiment is described as follows: Compound was tested for inhibition of cartilage degradation using bovine cartilage explant model. The format is functional, Cartilage tissue.
The species entered for experiment [7] is Bos taurus. As to the kind of experiment: Inhibition of cartilage degradation by the compound was detected using bovine cartilage explant model at 1 uM. The format is functional, Cartilage tissue.
Experiment [8] deals with Rattus norvegicus. As to the kind of experiment: Dialysis activity is detected at a dose of 50 mpk after 1 hr of ip administration. It is filed as functional.
For experiment [9], the species on record is Rattus norvegicus. The experiment is described as follows: Dialysis activity is detected at a dose of 50 mpk. The format is functional.

Sequence of Matrix metalloproteinase-9 (P14780 whole entry): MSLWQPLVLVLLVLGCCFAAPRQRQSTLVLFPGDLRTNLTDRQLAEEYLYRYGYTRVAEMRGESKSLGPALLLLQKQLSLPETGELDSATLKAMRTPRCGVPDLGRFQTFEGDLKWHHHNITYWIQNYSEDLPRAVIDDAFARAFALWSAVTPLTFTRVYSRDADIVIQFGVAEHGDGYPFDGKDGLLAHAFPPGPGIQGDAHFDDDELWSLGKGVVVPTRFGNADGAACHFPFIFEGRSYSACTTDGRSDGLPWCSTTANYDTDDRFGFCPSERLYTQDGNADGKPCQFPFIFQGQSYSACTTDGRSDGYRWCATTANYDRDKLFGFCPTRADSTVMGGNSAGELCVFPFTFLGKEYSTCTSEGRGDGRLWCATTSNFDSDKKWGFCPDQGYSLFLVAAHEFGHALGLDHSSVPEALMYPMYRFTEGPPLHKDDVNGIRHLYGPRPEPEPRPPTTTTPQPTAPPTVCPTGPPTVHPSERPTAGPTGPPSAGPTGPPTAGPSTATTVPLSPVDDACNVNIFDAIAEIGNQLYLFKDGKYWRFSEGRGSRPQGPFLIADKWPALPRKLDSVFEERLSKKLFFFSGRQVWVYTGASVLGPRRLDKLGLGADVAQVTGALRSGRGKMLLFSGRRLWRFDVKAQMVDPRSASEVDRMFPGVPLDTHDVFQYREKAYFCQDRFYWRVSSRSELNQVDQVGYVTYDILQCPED
Sequence of Disintegrin and metalloproteinase domain-containing protein 17 (P78536 whole entry, the tested form may be a part): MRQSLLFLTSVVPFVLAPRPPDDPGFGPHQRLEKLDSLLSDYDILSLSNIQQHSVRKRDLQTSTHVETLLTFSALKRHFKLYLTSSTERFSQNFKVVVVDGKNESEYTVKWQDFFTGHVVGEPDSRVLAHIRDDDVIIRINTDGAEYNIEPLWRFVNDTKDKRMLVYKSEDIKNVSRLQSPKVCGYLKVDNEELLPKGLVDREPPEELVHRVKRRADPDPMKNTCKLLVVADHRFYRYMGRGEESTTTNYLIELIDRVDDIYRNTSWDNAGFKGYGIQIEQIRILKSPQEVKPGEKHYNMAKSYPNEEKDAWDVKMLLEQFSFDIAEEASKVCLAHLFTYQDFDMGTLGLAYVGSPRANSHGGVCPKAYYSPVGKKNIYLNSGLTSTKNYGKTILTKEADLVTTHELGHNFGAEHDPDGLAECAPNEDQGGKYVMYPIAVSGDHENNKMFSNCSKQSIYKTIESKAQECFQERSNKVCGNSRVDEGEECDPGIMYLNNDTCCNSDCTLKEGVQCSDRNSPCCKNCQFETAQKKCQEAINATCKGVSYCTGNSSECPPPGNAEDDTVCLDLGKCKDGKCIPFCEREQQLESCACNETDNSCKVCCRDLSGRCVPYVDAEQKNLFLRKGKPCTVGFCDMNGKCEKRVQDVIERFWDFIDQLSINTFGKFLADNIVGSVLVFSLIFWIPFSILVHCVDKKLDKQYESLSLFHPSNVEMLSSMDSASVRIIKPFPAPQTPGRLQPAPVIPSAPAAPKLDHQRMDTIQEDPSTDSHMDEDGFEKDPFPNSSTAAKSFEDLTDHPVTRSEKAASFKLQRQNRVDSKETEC

Take `CC#CCOc1ccc(S(=O)(=O)N2Cc3ccccc3N(C(=O)c3ccccc3)CC2C(=O)NO)cc1` (stereo unspecified): in the experiment on THP-1, the inhibition (as a rule, the share of the control response that was lost under treatment) at 3 µM is 25%. The half-inhibitory concentration (IC50) (commonly the concentration at which inhibition is half-maximal) against Collagenase 3 came to 9.5 nM.

In the case of `COc1ccc(S(=O)(=O)N2Cc3ccccc3N(C(=O)C3CCCCC3)CC2C(=O)NO)cc1` (stereo unspecified), it took 13 nM to reach half-maximal inhibition in experiment [1] (IC50). Moreover, the Activity with Rattus norvegicus [2] is reported as 0.47.

In the case of `COc1ccc(S(=O)(=O)N2Cc3ccccc3N(C(=O)c3cc(F)ccc3C)CC2C(=O)NO)cc1` (stereo unspecified), the IC50 is 4 nM in [1] and 2 nM against Collagenase 3.

On to `COCC(=O)N1CC(C(=O)NO)N(S(=O)(=O)c2ccc(Oc3ccc(Cl)cc3)cc2)Cc2ccccc21` (stereo unspecified), for which the IA entry in the experiment listed under Rattus norvegicus [3] was “inactive”. Further, the IC50 in experiment [4] was determined as 157 nM; against Interstitial collagenase it was 61 nM.

In the case of `CC#CCOc1ccc(S(=O)(=O)N2Cc3ccccc3N(S(C)(=O)=O)CC2C(=O)NO)cc1` (stereo unspecified), testing at 3 µM with THP-1 gave an inhibition of 44%. Moreover, the IC50 in experiment [1] amounted to 95.5 nM; against Collagenase 3, 34.6 nM; in [4], 20 nM; on Interstitial collagenase it was 260 nM.

With `COCC(=O)N1CC(C(=O)NO)N(S(=O)(=O)c2ccc(Oc3ccncc3)cc2)Cc2ccccc21` (stereo unspecified), the concentration for half-maximal inhibition (IC50) in experiment [1] came to 2 nM; against Collagenase 3, 2 nM; in [4] it was 157 nM; on Interstitial collagenase, 763 nM. The molecule also had an Activity with Rattus norvegicus [2] of 0.32.

In the case of `COc1ccc(S(=O)(=O)N2Cc3ccccc3N(C(C)=O)CC2C(=O)NO)cc1` (stereo unspecified), the Activity in the experiment with Rattus norvegicus [5] stood at 1.7; in the experiment on Rattus norvegicus [2] it was 0.9. This molecule yielded an IC50 against Interstitial collagenase of 18 nM.

Regarding `COc1ccc(S(=O)(=O)N2Cc3ccccc3N(C(=O)c3ccccc3)CC2C(=O)NO)cc1` (stereo unspecified), the Inhibition (as a rule, the relative decrease from the control value, in per cent) in the experiment filed under Bos taurus [6] stood at 46.3%. Moreover, the Activity was determined as 0.73 in the experiment listed under Bos taurus [7] and 1.2 in the experiment with Rattus norvegicus [5]. Further, half-maximal inhibition in [1] (IC50) was put at 0.6 nM.

Consider `COCC(=O)N1CC(C(=O)NO)N(S(=O)(=O)c2ccc(OC)cc2)Cc2ccccc21` (stereo unspecified), for which the Activity was found to be 2.5 in the experiment listed under Bos taurus [7] and 1 in the experiment with Rattus norvegicus [2]. For the same molecule, the IC50 (in experiment [1]; at Collagenase 3) was 2 nM each time.

As for `CC#CCOc1ccc(S(=O)(=O)N2Cc3ccccc3N(C(C)=O)CC2C(=O)NO)cc1` (stereo unspecified), the inhibition at 3 µM in the experiment on THP-1 was 60%.

`COc1ccc(S(=O)(=O)N2Cc3ccccc3N(S(C)(=O)=O)CC2C(=O)NO)cc1` (stereo unspecified) came in with a half-inhibitory concentration (IC50) in [1] of 8 nM.

On to `CC#CCOc1ccc(S(=O)(=O)N2Cc3ccccc3N(C(=O)C3CC3)CC2C(=O)NO)cc1` (stereo unspecified), for which, in the experiment with THP-1, 3 µM produced 59% inhibition. The IC50 in [1] was found to be 33 nM; on Collagenase 3 it was 29 nM; in [4], 10 nM; at Interstitial collagenase, 841 nM.

Turning to `COc1ccc(S(=O)(=O)N2Cc3ccccc3N(C(=O)C3CC3)CC2C(=O)NO)cc1` (stereo unspecified), the Activity with Rattus norvegicus [8] is 0.8; in the experiment with Rattus norvegicus [2] it was 0.49.

`COc1ccc(S(=O)(=O)N2Cc3ccccc3N(C(=O)CCc3ccccc3)CC2C(=O)NO)cc1` (stereo unspecified) had an Activity in the experiment on Rattus norvegicus [5] of 0.22.

For `COc1ccc(S(=O)(=O)N2Cc3ccccc3N(C(=O)c3cccs3)CC2C(=O)NO)cc1` (stereo unspecified), the values for the Activity in the experiment filed under Bos taurus [7] and in the experiment on Rattus norvegicus [5] were 1.2 and 1.1, respectively. Further, the results for the IC50 on Collagenase 3 and on Interstitial collagenase were 1 nM and 20 nM, respectively.

Regarding `CCOc1ccc(C(=O)N2CC(C(=O)NO)N(S(=O)(=O)c3ccc(OC)cc3)Cc3ccccc32)cc1` (stereo unspecified), the IC50 was found to be 2 nM in experiment [1], 2 nM on Collagenase 3 and 24 nM against Interstitial collagenase.

Consider `O=C(NO)C1CN(C(=O)c2cccs2)c2ccccc2CN1S(=O)(=O)c1ccc(Oc2ccc(Cl)cc2)cc1` (stereo unspecified), for which the IC50 in experiment [1] worked out at 2 nM; against Collagenase 3, 4 nM; in experiment [4] it was 254 nM; against Interstitial collagenase, 35 nM.

As for `COc1ccc(S(=O)(=O)N(Cc2cccnc2)[C@@H](C(=O)NO)C(C)C)cc1.Cl` [CGS-27023A], the Inhibition in the experiment listed under Bos taurus [6] amounted to 63%. The Activity in the experiment filed under Bos taurus [7] and in the experiment filed under Rattus norvegicus [9] was 1 each time.

`O=C(NO)C1CN(C(=O)c2ccccc2)c2ccccc2CN1S(=O)(=O)c1ccc(Oc2ccc(Cl)cc2)cc1` (stereo unspecified): the IC50 is 528 nM in experiment [4] and 59 nM against Interstitial collagenase.

These data come from ChEMBL document CHEMBL1135203, “Benzodiazepine inhibitors of the MMPs and TACE” (Bioorg Med Chem Lett, 2002).
